Assay results published in ChEMBL document CHEMBL1909046, “DrugMatrix in vitro pharmacology data”.

Biological target: T1, Alpha-2A adrenergic receptor (Homo sapiens, UniProt P08913); note: in other assays of this panel Not Active means under 50% inhibition at 10 µM
T1 sequence (P08913 whole entry): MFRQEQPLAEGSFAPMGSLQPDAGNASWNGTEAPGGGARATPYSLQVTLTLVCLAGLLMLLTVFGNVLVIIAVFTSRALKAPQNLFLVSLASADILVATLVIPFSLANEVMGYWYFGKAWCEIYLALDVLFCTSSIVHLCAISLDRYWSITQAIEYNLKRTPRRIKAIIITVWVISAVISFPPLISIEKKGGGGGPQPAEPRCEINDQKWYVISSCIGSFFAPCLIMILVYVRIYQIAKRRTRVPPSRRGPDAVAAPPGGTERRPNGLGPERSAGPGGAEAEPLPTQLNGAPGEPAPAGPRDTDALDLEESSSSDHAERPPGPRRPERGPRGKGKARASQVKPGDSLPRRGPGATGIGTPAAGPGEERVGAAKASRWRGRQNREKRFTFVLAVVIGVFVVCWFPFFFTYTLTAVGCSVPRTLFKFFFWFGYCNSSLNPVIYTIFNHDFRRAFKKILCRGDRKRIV
Assay type: cell membranes, Sf9, Membrane
Conditions: read-out: IC50
Molecule `COc1ccccc1OCCNCC(O)COc1cccc2[nH]c3ccccc3c12` (configuration not stated) [CARVEDILOL] has an IC50 of 0.106 µM.

Same assay, conditions: read-out: Ki
`COc1ccccc1OCCNCC(O)COc1cccc2[nH]c3ccccc3c12` (configuration not stated) [CARVEDILOL] gave a Ki of 0.04 µM.

Same assay, conditions: sf9
In the case of `C[C@H](C(=O)O)c1ccc2oc(-c3ccc(F)cc3)nc2c1` [FLUNOXAPROFEN], the IC50 is reported as “Not Active”. For `O=C(O)c1ccccc1` [BENZOIC ACID], the IC50 was “Not Active”. With `CN(CCOc1ccc(C[C@H](Nc2ccccc2C(=O)c2ccccc2)C(=O)O)cc1)c1ccccn1` the IC50 was “Not Active”. For `O=c1[nH]cnc2c1ncn2[C@H]1CC[C@@H](CO)O1` [DIDANOSINE], the IC50 was “Not Active”. For `CC(C)(c1ccc(O)cc1)c1ccc(O)cc1` [BISPHENOL A], the IC50 was “Not Active”.

Test system: not listed separately
Assay: DRUGMATRIX: Glutamate, NMDA, Phencyclidine radioligand binding (ligand: [3H] TCP)
Assay type: cell membranes, Rattus norvegicus, Wistar, Cerebral cortex, Membrane
Conditions: Not Active = under 50% inhibition at 10 µM
For `C[C@H](C(=O)O)c1ccc2oc(-c3ccc(F)cc3)nc2c1` [FLUNOXAPROFEN], the IC50 was “Not Active” and the Ki was “Not Active”. In the case of `O=C(O)c1ccccc1` [BENZOIC ACID], the IC50 is reported as “Not Active” and the Ki is reported as “Not Active”. For `CN(CCOc1ccc(C[C@H](Nc2ccccc2C(=O)c2ccccc2)C(=O)O)cc1)c1ccccn1`, the IC50 was “Not Active” and the Ki was “Not Active”. In the case of `O=c1[nH]cnc2c1ncn2[C@H]1CC[C@@H](CO)O1` [DIDANOSINE], the IC50 is reported as “Not Active” and the Ki is reported as “Not Active”. For `CC(C)(c1ccc(O)cc1)c1ccc(O)cc1` [BISPHENOL A], the IC50 was “Not Active” and the Ki was “Not Active”. In the case of `COc1ccccc1OCCNCC(O)COc1cccc2[nH]c3ccccc3c12` (configuration not stated) [CARVEDILOL], the IC50 is reported as “Not Active” and the Ki is reported as “Not Active”.

Test system: not listed separately
Assay: DRUGMATRIX: Platelet-Derived Growth Factor (PDGF) radioligand binding (ligand: [125I] PDGF)
Assay type: cell-based
Conditions: nih3t3; Not Active = under 50% inhibition at 10 µM
For `C[C@H](C(=O)O)c1ccc2oc(-c3ccc(F)cc3)nc2c1` [FLUNOXAPROFEN], the IC50 was “Not Active” and the Ki was “Not Active”. With `O=C(O)c1ccccc1` [BENZOIC ACID] the IC50 was “Not Active” and the Ki was “Not Active”. With `CN(CCOc1ccc(C[C@H](Nc2ccccc2C(=O)c2ccccc2)C(=O)O)cc1)c1ccccn1` the IC50 was “Not Active” and the Ki was “Not Active”. With `O=c1[nH]cnc2c1ncn2[C@H]1CC[C@@H](CO)O1` [DIDANOSINE] the IC50 was “Not Active” and the Ki was “Not Active”. For `CC(C)(c1ccc(O)cc1)c1ccc(O)cc1` [BISPHENOL A], the IC50 was “Not Active” and the Ki was “Not Active”. In the case of `COc1ccccc1OCCNCC(O)COc1cccc2[nH]c3ccccc3c12` (configuration not stated) [CARVEDILOL], the IC50 is reported as “Not Active” and the Ki is reported as “Not Active”.

Biological target: Mitogen-activated protein kinase 3 (Homo sapiens, UniProt P27361)
Sequence (P27361 whole entry): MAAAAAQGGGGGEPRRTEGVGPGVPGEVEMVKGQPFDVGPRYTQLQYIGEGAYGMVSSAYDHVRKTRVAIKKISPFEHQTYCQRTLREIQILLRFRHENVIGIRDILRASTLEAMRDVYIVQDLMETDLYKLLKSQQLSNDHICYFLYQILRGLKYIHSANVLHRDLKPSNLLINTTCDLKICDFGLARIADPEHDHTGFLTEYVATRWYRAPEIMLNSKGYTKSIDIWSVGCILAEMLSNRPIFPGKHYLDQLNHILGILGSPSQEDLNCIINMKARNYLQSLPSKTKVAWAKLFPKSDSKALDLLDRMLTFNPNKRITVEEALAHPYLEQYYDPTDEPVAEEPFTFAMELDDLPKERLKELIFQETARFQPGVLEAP
Assay: DRUGMATRIX: Protein Serine/Threonine Kinase, ERK1 enzyme inhibition (substrate: Myelin Basic Protein)
Set-up: species or system Escherichia coli
Conditions: Not Active = under 50% inhibition at 10 µM
For `C[C@H](C(=O)O)c1ccc2oc(-c3ccc(F)cc3)nc2c1` [FLUNOXAPROFEN], the IC50 was “Not Active”. For `O=C(O)c1ccccc1` [BENZOIC ACID], the IC50 was “Not Active”. For `CN(CCOc1ccc(C[C@H](Nc2ccccc2C(=O)c2ccccc2)C(=O)O)cc1)c1ccccn1`, the IC50 was “Not Active”. With `O=c1[nH]cnc2c1ncn2[C@H]1CC[C@@H](CO)O1` [DIDANOSINE] the IC50 was “Not Active”. With `CC(C)(c1ccc(O)cc1)c1ccc(O)cc1` [BISPHENOL A] the IC50 was “Not Active”. For `COc1ccccc1OCCNCC(O)COc1cccc2[nH]c3ccccc3c12` (configuration not stated) [CARVEDILOL], the IC50 was “Not Active”.

Biological target: Acetylcholinesterase (Homo sapiens, UniProt P22303)
Sequence (P22303 whole entry): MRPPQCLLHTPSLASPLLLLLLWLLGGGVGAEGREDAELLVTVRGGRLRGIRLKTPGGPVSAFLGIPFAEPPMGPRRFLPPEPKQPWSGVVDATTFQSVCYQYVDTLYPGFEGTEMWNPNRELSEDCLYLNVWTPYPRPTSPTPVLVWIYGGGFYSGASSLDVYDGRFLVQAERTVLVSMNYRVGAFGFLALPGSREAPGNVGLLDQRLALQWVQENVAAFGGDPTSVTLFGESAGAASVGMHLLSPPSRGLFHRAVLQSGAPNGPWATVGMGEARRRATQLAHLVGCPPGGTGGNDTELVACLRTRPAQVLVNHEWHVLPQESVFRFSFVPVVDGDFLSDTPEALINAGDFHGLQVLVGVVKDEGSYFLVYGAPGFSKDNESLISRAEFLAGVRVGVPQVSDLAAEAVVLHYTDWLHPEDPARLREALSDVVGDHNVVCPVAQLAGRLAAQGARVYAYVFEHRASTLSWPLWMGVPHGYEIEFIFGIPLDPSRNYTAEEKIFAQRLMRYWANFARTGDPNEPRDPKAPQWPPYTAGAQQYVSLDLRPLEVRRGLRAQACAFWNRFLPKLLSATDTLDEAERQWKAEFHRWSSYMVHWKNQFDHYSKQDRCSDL
Assay: DRUGMATRIX: Acetylcholinesterase enzyme inhibition (substrate: acetylthiocholine)
Assay type: cell-based, HEK293
Conditions: hek293; Not Active = under 50% inhibition at 10 µM
In the case of `C[C@H](C(=O)O)c1ccc2oc(-c3ccc(F)cc3)nc2c1` [FLUNOXAPROFEN], the IC50 is reported as “Not Active”. With `O=C(O)c1ccccc1` [BENZOIC ACID] the IC50 was “Not Active”. For `CN(CCOc1ccc(C[C@H](Nc2ccccc2C(=O)c2ccccc2)C(=O)O)cc1)c1ccccn1`, the IC50 was “Not Active”. For `O=c1[nH]cnc2c1ncn2[C@H]1CC[C@@H](CO)O1` [DIDANOSINE], the IC50 was “Not Active”. For `CC(C)(c1ccc(O)cc1)c1ccc(O)cc1` [BISPHENOL A], the IC50 was “Not Active”. With `COc1ccccc1OCCNCC(O)COc1cccc2[nH]c3ccccc3c12` (configuration not stated) [CARVEDILOL] the IC50 was “Not Active”.

Biological target: Adenosine receptor A2a (Homo sapiens, UniProt P29274)
Sequence (P29274 whole entry): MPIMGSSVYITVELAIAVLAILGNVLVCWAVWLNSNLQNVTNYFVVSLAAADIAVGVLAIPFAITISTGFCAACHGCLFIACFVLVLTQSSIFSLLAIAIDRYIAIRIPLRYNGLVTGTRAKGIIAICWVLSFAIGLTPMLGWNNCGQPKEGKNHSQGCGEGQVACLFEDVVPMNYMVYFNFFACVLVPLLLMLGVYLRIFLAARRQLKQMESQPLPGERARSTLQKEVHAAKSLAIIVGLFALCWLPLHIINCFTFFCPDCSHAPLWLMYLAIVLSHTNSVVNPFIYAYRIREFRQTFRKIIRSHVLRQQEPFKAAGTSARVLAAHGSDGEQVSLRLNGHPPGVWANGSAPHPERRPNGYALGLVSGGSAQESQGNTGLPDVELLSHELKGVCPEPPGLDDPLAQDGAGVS
Assay: DRUGMATRIX: Adenosine A2A radioligand binding (ligand: […])
Assay type: cell membranes, HEK293, Membrane
Conditions: Not Active = under 50% inhibition at 10 µM; read-out: IC50
Molecule `CN(CCOc1ccc(C[C@H](Nc2ccccc2C(=O)c2ccccc2)C(=O)O)cc1)c1ccccn1` has an IC50 of 37.3 µM.

Same assay, conditions: Not Active = under 50% inhibition at 10 µM; read-out: Ki
`CN(CCOc1ccc(C[C@H](Nc2ccccc2C(=O)c2ccccc2)C(=O)O)cc1)c1ccccn1` showed a Ki of 20.9 µM.

Same assay, conditions: hek293; Not Active = under 50% inhibition at 10 µM
With `C[C@H](C(=O)O)c1ccc2oc(-c3ccc(F)cc3)nc2c1` [FLUNOXAPROFEN] the IC50 was “Not Active”. For `O=C(O)c1ccccc1` [BENZOIC ACID], the IC50 was “Not Active”. With `O=c1[nH]cnc2c1ncn2[C@H]1CC[C@@H](CO)O1` [DIDANOSINE] the IC50 was “Not Active”. In the case of `CC(C)(c1ccc(O)cc1)c1ccc(O)cc1` [BISPHENOL A], the IC50 is reported as “Not Active”. In the case of `COc1ccccc1OCCNCC(O)COc1cccc2[nH]c3ccccc3c12` (configuration not stated) [CARVEDILOL], the IC50 is reported as “Not Active”.

Biological target: T2, Cytochrome P450 2A6 (Homo sapiens, UniProt P11509); note: in other assays of this panel Not Active means under 50% inhibition at 10 µM
T2 sequence (P11509 whole entry): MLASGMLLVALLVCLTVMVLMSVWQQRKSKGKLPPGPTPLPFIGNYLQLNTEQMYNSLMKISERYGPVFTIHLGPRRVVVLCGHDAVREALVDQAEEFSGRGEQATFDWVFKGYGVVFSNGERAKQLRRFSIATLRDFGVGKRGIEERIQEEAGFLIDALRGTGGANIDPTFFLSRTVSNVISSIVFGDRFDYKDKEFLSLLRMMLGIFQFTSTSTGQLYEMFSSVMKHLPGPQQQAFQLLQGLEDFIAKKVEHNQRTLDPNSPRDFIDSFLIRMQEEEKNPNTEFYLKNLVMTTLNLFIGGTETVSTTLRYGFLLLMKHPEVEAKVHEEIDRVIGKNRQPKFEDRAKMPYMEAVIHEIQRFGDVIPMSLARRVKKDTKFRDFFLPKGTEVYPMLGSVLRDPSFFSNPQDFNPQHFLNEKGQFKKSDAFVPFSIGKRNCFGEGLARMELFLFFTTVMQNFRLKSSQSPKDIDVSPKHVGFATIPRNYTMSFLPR
Conditions: bti-tn-5b1-4
With `C[C@H](C(=O)O)c1ccc2oc(-c3ccc(F)cc3)nc2c1` [FLUNOXAPROFEN] the IC50 was “Not Active” and the Ki was “Not Active”. With `O=C(O)c1ccccc1` [BENZOIC ACID] the IC50 was “Not Active” and the Ki was “Not Active”. In the case of `CN(CCOc1ccc(C[C@H](Nc2ccccc2C(=O)c2ccccc2)C(=O)O)cc1)c1ccccn1`, the IC50 is reported as “Not Active” and the Ki is reported as “Not Active”. With `O=c1[nH]cnc2c1ncn2[C@H]1CC[C@@H](CO)O1` [DIDANOSINE] the IC50 was “Not Active” and the Ki was “Not Active”. For `CC(C)(c1ccc(O)cc1)c1ccc(O)cc1` [BISPHENOL A], the IC50 was “Not Active” and the Ki was “Not Active”. For `COc1ccccc1OCCNCC(O)COc1cccc2[nH]c3ccccc3c12` (configuration not stated) [CARVEDILOL], the IC50 was “Not Active” and the Ki was “Not Active”.
